Here are results for six molecules from patent US6649172B2, “Amphipathic aldehydes and their uses as adjuvants and immunoeffectors” (Corixa Corporation, priority 2000, dated 2003).

Series [1] relates to recombinant hepatitis B surface antigen (rHBsAg). The series is described as follows: Serum antibody titers to rHBsAg by ELISA after vaccination (Example 7). The format is in vivo, BALB/c mice. As to the method: For the evaluation of antibody responses, […] by vaginal wash and individually tested for HBsAg-specific antibody activity by enzyme-linked immunosorbent assay (ELISA). The endpoint antibody titers of each mouse are evaluated as total IgG, IgG1, IgG2a, IgG2b and IgA specific for rHBsAg.
Compound III, isotucaresol, was evaluated for adjuvant activity with a model hepatitis B vaccine. III, was prepared as an aqueous formulation in PBS and admixed with recombinant hepatitis B surface antigen (rHBsAg) (Rhein Biotech, Düisseldorf, Germany) with or without the AGP adjuvant 99 (2-[(R)-3-tetradecanoyloxytetradecanoylamino]ethyl 2-Deoxy-4-O-phosphono-3-O-[(R)-3-tetradecanoyloxytetradecanoyl]-2-[(R)-3-tetradecanoyloxytetradecanoylamino]-β-D-glucopyranoside Triethylammonium Salt). Mice were administered the vaccines on days 0 and 21 by subcutaneous (s.c.) injection of vaccine containing 1 μg rHBsAg±1000 μg III±5 μg 99. The antigen-specific immune response to rHBsAg was evaluated by measurement of serum antibody and cytotoxic T lymphocytes (CTL).
(In general: An ELISA detects its analyte on a solid surface through an enzyme-linked reagent.)

Series [2] has as its system CD8+, IFNγ+ cells. The series is described as follows: CD8+, IFNγ+ lymphocytes by flow cytometry, spleen cells of vaccinated mice (Example 7). Note: key: N: 1:5000-1:1000; 1N: 1:999-1:750; 2N: 1:749-1:500; 3N: 1:499-1:250; 4N: 1:249-1:200; 5N: 1:199-1:100. It counts as in vivo, BALB/c mice. The following applies: spleen cells 26 days after secondary vaccination, 75 nM CTL epitope peptide, six-hour incubation; s.c. days 0 and 21, 1 μg rHBsAg ± 1000 μg III ± 5 μg 99. As to the method: (§1) Spleen cells were collected from donor mice 26 days after the secondary vaccination and evaluated for CTL activity. rHBsAg directed specific lysis was assessed in a standard four hour ^51Cr-release assay and by measurement of CD8+, IFNγ+ using flow cytometry.
On the technique in general: In flow cytometry, cells or beads pass a laser one at a time.

The subject of series [3] is transfected P815 cell line (P815S). The series is described as follows: CTL activity, four hour 51Cr-release assay with spleen cells of vaccinated mice (Example 7). The format is in vivo, BALB/c mice. The note with it: for Percent Specific Cell Lysis (50:1): 50:1 effector:target ratio, P815S targets, spleen cells 26 days after secondary vaccination, s.c. days 0 and 21, 1 μg rHBsAg ± 1000 μg III ± 5 μg 99. On the procedure:
Fourteen days after the second injection single cell suspensions are prepared from splenic lymphocytes of 3 mice per group. The spleen cells (75×10^6) are subsequently incubated at 37° C. in 10 ml RP10-SC media containing 50 nM of an L^d-restricted HBV CTL epitope ([…]) for 4 days. Stimulated effector cells are harvested, resuspended to 5×10^6 […] and serially diluted (in triplicate) in a volume of 100 μl RP10-SC/well of a 96 well microtiter plate followed by the addition of […] of RP10-SC containing 1×10^4 51Cr labeled P815S target cells (transfected P815 cells (H-2^d) expressing the hepatitis B S-antigen). Plates are centrifuged for 5 min at 400×g and placed in a 37° C. CO2 incubator for 4 h. Percent specific cytotoxicity is then determined.
as §1

The test system of series [4] is recombinant hepatitis B surface antigen (rHBsAg). As to the kind of experiment: Serum antibody titers to rHBsAg by ELISA after vaccination (Example 8). The format is in vivo, BALB/c mice. The following applies: for adjuvant activity: serum antibody production (summary in words): rHBsAg vaccine, s.c. days 0 and 14, mice. On the procedure: Compounds 40, 42, and 44, were evaluated for adjuvant activity with a model hepatitis B vaccine. These compounds were prepared as aqueous formulations in PBS and admixed with recombinant hepatitis B surface antigen (rHBsAg) with or without the AGP adjuvant 99. Compound 99 was solubilized in an aqueous formulation containing dipalmitoylphosphatidyl choline in water. Mice were administered the vaccines on days 0 and 14 by subcutaneous (s.c.) injection. The antigen-specific immune response to rHBsAg was evaluated by measurement of serum antibody and cytotoxic T lymphocytes (CTL). The results shown in Table 3 confirm the adjuvant activity of compounds of 40, 42, and 44.

For series [5], the system named is CD8+, IFNγ+ cells. The series is described as follows: CD8+, IFNγ+ lymphocytes by flow cytometry, spleen cells of vaccinated mice (Example 8). For CTL Ratio of CD8+, IFNγ+ Lymphocytes: key: N: 1:5000-1:1000; 1N: 1:999-1:750; 2N: 1:749-1:500; 3N: 1:499-1:250; 4N: 1:249-1:200; 5N: 1:199-1:100. It counts as in vivo, BALB/c mice. The note with it: for CTL Ratio of CD8+, IFNγ+ Lymphocytes: female BALB/c mice, s.c. days 0 and 14, spleen cells 11 days after secondary vaccination; for CTL response to the hepatitis vaccine antigen (summary in words): rHBsAg vaccine, s.c. days 0 and 14, mice, CD8+, IFNγ+ flow cytometry. As to the method: Spleen cells were collected from donor mice 11 days after the secondary vaccination and evaluated for CTL activity. The rHBsAg directed CTL was assessed by measurement of CD8+, IFNγ+ using flow cytometry.

Series [6] concerns sheep red blood cells (SRBC). The note with it: cited from earlier work.
[7] abbreviates: female BALB/c mice, s.c. days 0 and 21, 1 μg rHBsAg ± 1000 μg III ± 5 μg 99, serum 21 days post-secondary vaccination, ELISA.
The mark [8] stands for this setting: adjuvant dose 5 μg with rHBsAg, female BALB/c mice, s.c. days 0 and 14, serum 11 days post-secondary vaccination, ELISA.
Where [9] appears, read: adjuvant dose 250 μg with rHBsAg, female BALB/c mice, s.c. days 0 and 14, serum 11 days post-secondary vaccination, ELISA.
Where [10] appears, read: adjuvant dose 250 μg with rHBsAg.
Setting [11] is: adjuvant dose 500 μg with rHBsAg.
Where [12] appears, read: adjuvant dose 1000 μg with rHBsAg.
Where [13] appears, read: 1 μg rHBsAg + 1000 μg III + 5 μg 99, s.c. days 0 and 21, mice.

As for “2-[(R)-3-tetradecanoyloxytetradecanoylamino]ethyl 2-Deoxy-4-O-phosphono-3-O-[(R)-3-tetradecanoyloxytetradecanoyl]-2-[(R)-3-tetradecanoyloxytetradecanoylamino]-β-D-glucopyranoside triethylammonium salt [Compound 99, reference compound]”, in series [1] (setting [7]), the “Gross Geometric Mean Serum Titers IgG1” value is given as 5,000X and the “Gross Geometric Mean Serum Titers IgG2a” value is reported as 5,000X. Moreover, in the series on CD8+, IFNγ+ cells [2], the “Lymphocytes CD8+, IFNγ+ (ratio of CD8+, IFNγ+ cells to total CD8+ cells)” value is reported as 3N. Further, in series [3], the “Percent Specific Cell Lysis (50:1)” value is listed as 5+ (“5+” is 41-50 Percent Specific Cell Lysis). In addition, in series [4] (setting [8]), the “Gross Geometric Serum Titers IGG” value is recorded as 5,000X and the “Gross Geometric Serum Titers IgG2a” value is recorded as 5,000X. In addition, the “CTL Ratio of CD8+, IFNγ+ Lymphocytes” value in the series on CD8+, IFNγ+ cells [5] (adjuvant dose 5 μg with rHBsAg) was 4N.
With `COC(=O)c1ccc(COc2ccc(O)c(C=O)c2)cc1` [Compound 40, methyl 4-(3-formyl-4-hydroxyphenoxymethyl)benzoate], the melting point lay within 132 to 134 °C. Also, the “Gross Geometric Serum Titers IgG1” value in series [4] (setting [9]) is 1,000X. Besides, the “Gross Geometric Serum Titers IgG1” value in series [4] (adjuvant dose 500 μg with rHBsAg, female BALB/c mice, s.c. days 0 and 14, serum 11 days post-secondary vaccination, ELISA) is on record as 5,000X. For the same molecule, the “Gross Geometric Serum Titers IgG1” value in series [4] (adjuvant dose 1000 μg with rHBsAg, female BALB/c mice, s.c. days 0 and 14, serum 11 days post-secondary vaccination, ELISA) is 5,000X. Moreover, the “adjuvant activity: serum antibody production (summary in words)” value in series [4] is “enhanced serum antibody production”. In the series on CD8+, IFNγ+ cells [5] (setting [10]), the “CTL Ratio of CD8+, IFNγ+ Lymphocytes” value was 3N. Also, the “CTL Ratio of CD8+, IFNγ+ Lymphocytes” value with CD8+, IFNγ+ cells [5] (setting [11]) stood at 2N. Also, the “CTL Ratio of CD8+, IFNγ+ Lymphocytes” value in the series with CD8+, IFNγ+ cells [5] (setting [12]) worked out at 5N. In the series with CD8+, IFNγ+ cells [5], the “CTL response to the hepatitis vaccine antigen (summary in words)” value was “enhance the CTL response”.
As for `O=Cc1cc(OCc2ccc(C(=O)O)cc2)ccc1OCC(=O)O` [Compound 42, 4-[(4-carboxymethoxy-3-formyl-phenoxy)methyl]benzoic acid], the melting point was 239 to 242 °C (dec.). In addition, in series [4] (setting [9]), the “Gross Geometric Serum Titers IgG1” value is 1,000X. Moreover, the “adjuvant activity: serum antibody production (summary in words)” value in series [4] is “enhanced serum antibody production”. Further, the “CTL Ratio of CD8+, IFNγ+ Lymphocytes” value in the series on CD8+, IFNγ+ cells [5] (setting [10]) came to 5N. In addition, the “CTL Ratio of CD8+, IFNγ+ Lymphocytes” value in the series with CD8+, IFNγ+ cells [5] (setting [11]) is reported as 3N. In addition, the “CTL Ratio of CD8+, IFNγ+ Lymphocytes” value with CD8+, IFNγ+ cells [5] (setting [12]) worked out at 2N. Besides, in the series with CD8+, IFNγ+ cells [5], the “CTL response to the hepatitis vaccine antigen (summary in words)” value is reported as “enhance the CTL response”.
As to `O=Cc1cc(OCc2ccc(C(=O)O)cc2)ccc1OCCCC(=O)O` [Compound 44], the “adjuvant activity: serum antibody production (summary in words)” value in series [4] was “enhanced serum antibody production”. The “CTL Ratio of CD8+, IFNγ+ Lymphocytes” value amounted to 4N with CD8+, IFNγ+ cells [5] (setting [10]); 3N with CD8+, IFNγ+ cells [5] (setting [11]); 2N in the series on CD8+, IFNγ+ cells [5] (setting [12]). In addition, the “CTL response to the hepatitis vaccine antigen (summary in words)” value in the series with CD8+, IFNγ+ cells [5] is “enhance the CTL response”.
As for `O=Cc1cc(OCc2ccc(C(=O)O)cc2)ccc1O` [Compound III, 4-[(3-formyl-4-hydroxyphenoxy)methyl]benzoic acid], the melting point is 222 to 224 °C (dec.). Moreover, in series [1] (setting [13]), the “interaction with the AGP adjuvant 99 on serum antibody (summary in words)” value is “acts synergistically”. Also, the “adjuvant activity: serum antibody production (summary in words)” value in series [1] (1 μg rHBsAg + 1000 μg III, s.c. days 0 and 21, mice) is “enhanced serum antibody production”. In series [1] (setting [7]), the “Gross Geometric Mean Serum Titers IgG” value was 5,000X and the “Gross Geometric Mean Serum Titers IgG1” value is reported as 5,000X. Moreover, in the series on CD8+, IFNγ+ cells [2], the “Lymphocytes CD8+, IFNγ+ (ratio of CD8+, IFNγ+ cells to total CD8+ cells)” value is on record as 2N. Also, the “effect on the CTL adjuvant activity induced by 99 (summary in words)” value in series [3] (setting [13]) is on record as “additive effect”. The “CTL response to the vaccine antigen (summary in words)” value in series [3] (1 μg rHBsAg + 1000 μg III, s.c. days 0 and 21, mice, 51Cr-release and CD8+, IFNγ+ flow cytometry) is given as “enhances the CTL response”. The “Percent Specific Cell Lysis (50:1)” value in series [3] is given as 4+ (“4+” is 31-40 Percent Specific Cell Lysis).
For `C[C@@H]1CC[C@@]2(OC1)O[C@H]1[C@@H](O)[C@H]3[C@@H]4CC[C@H]5C[C@@H](O[C@@H]6O[C@H](CO)[C@H](O[C@@H]7O[C@H](CO)[C@@H](O)[C@H](O[C@@H]8OC[C@@H](O)[C@H](O)[C@H]8O)[C@H]7O[C@@H]7O[C@H](CO)[C@H](O)[C@H](O[C@@H]8O[C@H](CO)[C@@H](O)[C@H](O)[C@H]8O)[C@H]7O)[C@H](O)[C@H]6O)[C@H](O)C[C@]5(C)[C@H]4CC[C@]3(C)[C@H]1[C@@H]2C` [digitonin], the “hemolytic activity towards red blood cells” value in series [6] is listed as “highly hemolytic”.

In general, melting point refers to the temperature, or range, at which the solid turns liquid.
